Columns and labels:
Format in all cases: in vivo
Conditions in all cases: 250 g/h, evaluated after 13 days
[1] = tested on: Alopecurus myosuroides (ALOMY); assay: Pre-emergence herbicidal glasshouse test, percentage damage
Summary of the method: (§1)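 Five-point damage scores (5=80-100%, 1=0-19%) were recorded 13 days after application of 250 g/h. Treatment was pre-emergence (1 day after sowing) or post-emergence (8 days), and plants were kept at 24/16 °C, 14 h light, 65% humidity with twice-daily watering.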

[2] = tested on: Avena fatua (AVEFA); assay: as above
Summary of the method: as §1

[3] = tested on: Echinochloa crus-galli (ECHCG); assay: as above
Summary of the method: as §1

[4] = tested on: Lolium perenne (LOLPE); assay: as above
Summary of the method: as §1

[5] = tested on: Setaria faberi (SETFA); assay: as above
Summary of the method: as §1

[6] = tested on: Setaria faberi (SETFA); assay: Post-emergence herbicidal glasshouse test, percentage damage
Summary of the method: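 Percentage damage was scored 13 days after treatment on a five-point scale (1=0-19% to 5=80-100%). Treatments were post-emergence sprays on 8-day-old wheat, barley and SETFA plants in a glasshouse (24/16 °C day/night, 14 h light, 65% humidity), using acetone/water 50:50 with 0.5% Tween 20 at the stated rates. Wheat additionally received cloquintocet-mexyl safener at 50 g/ha.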

[7] = tested on: Alopecurus myosuroides (ALOMY); assay: as above
Summary of the method: as §1

[8] = tested on: Avena fatua (AVEFA); assay: as above
Summary of the method: as §1

[9] = tested on: Lolium perenne (LOLPE); assay: as above
Summary of the method: as §1

Compound: CC#Cc1cc(C)c(C2C(=O)CC3(CCN(S(=O)(=O)CC4CC4)CC3)CC2=O)c(C)c1 [Compound A15]
- ALOMY PRE percentage damage (five point scale) [1]: 5 (5=80-100%)
- AVEFA PRE percentage damage (five point scale) [2]: 5 (5=80-100%)
- ECHCG PRE percentage damage (five point scale) [3]: 5 (5=80-100%)
- LOLPE PRE percentage damage (five point scale) [4]: 5 (5=80-100%)
- SETFA PRE percentage damage (five point scale) [5]: 5 (5=80-100%)
- SETFA POST percentage damage (five point scale) [6]: 5 (5=80-100%)
- ALOMY POST percentage damage (five point scale) [7]: 5 (5=80-100%)
- AVEFA POST percentage damage (five point scale) [8]: 5 (5=80-100%)
- LOLPE POST percentage damage (five point scale) [9]: 5 (5=80-100%)

Compound: CC#Cc1cc(C)c(C2=C(OC(=O)OC)CC3(CCN(C(=O)c4ncccn4)CC3)CC2=O)c(C)c1 [Compound P22]
- ALOMY PRE percentage damage (five point scale) [1]: 5 (5=80-100%)
- AVEFA PRE percentage damage (five point scale) [2]: 5 (5=80-100%)
- ECHCG PRE percentage damage (five point scale) [3]: 5 (5=80-100%)
- LOLPE PRE percentage damage (five point scale) [4]: 5 (5=80-100%)
- SETFA PRE percentage damage (five point scale) [5]: 5 (5=80-100%)
- SETFA POST percentage damage (five point scale) [6]: 5 (5=80-100%)
- ALOMY POST percentage damage (five point scale) [7]: 5 (5=80-100%)
- AVEFA POST percentage damage (five point scale) [8]: 5 (5=80-100%)
- LOLPE POST percentage damage (five point scale) [9]: 5 (5=80-100%)

Compound: CC#Cc1cc(C)c(C2=C(OC(=O)OC)CC3(CCN(C(=O)C(C)OC)CC3)CC2=O)c(C)c1 (stereo not drawn) [Compound P32]
- ALOMY PRE percentage damage (five point scale) [1]: 5 (5=80-100%)
- AVEFA PRE percentage damage (five point scale) [2]: 5 (5=80-100%)
- ECHCG PRE percentage damage (five point scale) [3]: 5 (5=80-100%)
- LOLPE PRE percentage damage (five point scale) [4]: 5 (5=80-100%)
- SETFA PRE percentage damage (five point scale) [5]: 5 (5=80-100%)
- SETFA POST percentage damage (five point scale) [6]: 5 (5=80-100%)
- ALOMY POST percentage damage (five point scale) [7]: 5 (5=80-100%)
- AVEFA POST percentage damage (five point scale) [8]: 5 (5=80-100%)
- LOLPE POST percentage damage (five point scale) [9]: 5 (5=80-100%)

Compound: CC#Cc1cc(C)c(C2C(=O)CC3(CCN(C(=O)c4cccnn4)CC3)CC2=O)c(C)c1 [Compound A21]
- ALOMY PRE percentage damage (five point scale) [1]: 5 (5=80-100%)
- AVEFA PRE percentage damage (five point scale) [2]: 5 (5=80-100%)
- ECHCG PRE percentage damage (five point scale) [3]: 2 (2=20-39%)
- LOLPE PRE percentage damage (five point scale) [4]: 5 (5=80-100%)
- SETFA PRE percentage damage (five point scale) [5]: 3 (3=40-59%)
- SETFA POST percentage damage (five point scale) [6]: 5 (5=80-100%)
- ALOMY POST percentage damage (five point scale) [7]: 5 (5=80-100%)
- AVEFA POST percentage damage (five point scale) [8]: 5 (5=80-100%)
- LOLPE POST percentage damage (five point scale) [9]: 5 (5=80-100%)

Compound: CC#Cc1cc(C)c(C2C(=O)CC3(CCN(C(=O)NC(=O)c4ccccn4)CC3)CC2=O)c(OC)c1 [Compound A79]
- ALOMY PRE percentage damage (five point scale) [1]: 4 (4=60-79%)
- AVEFA PRE percentage damage (five point scale) [2]: 5 (5=80-100%)
- ECHCG PRE percentage damage (five point scale) [3]: 4 (4=60-79%)
- LOLPE PRE percentage damage (five point scale) [4]: 5 (5=80-100%)
- SETFA PRE percentage damage (five point scale) [5]: 4 (4=60-79%)
- SETFA POST percentage damage (five point scale) [6]: 5 (5=80-100%)
- ALOMY POST percentage damage (five point scale) [7]: 5 (5=80-100%)
- AVEFA POST percentage damage (five point scale) [8]: 5 (5=80-100%)
- LOLPE POST percentage damage (five point scale) [9]: 5 (5=80-100%)

Compound: CC#Cc1cc(C)c(C2=C(OC(=O)OC)CC3(CCN(S(=O)(=O)c4ccccn4)CC3)CC2=O)c(C)c1 [Compound P34]
- ALOMY PRE percentage damage (five point scale) [1]: 5 (5=80-100%)
- AVEFA PRE percentage damage (five point scale) [2]: 5 (5=80-100%)
- ECHCG PRE percentage damage (five point scale) [3]: 5 (5=80-100%)
- LOLPE PRE percentage damage (five point scale) [4]: 5 (5=80-100%)
- SETFA PRE percentage damage (five point scale) [5]: 5 (5=80-100%)
- SETFA POST percentage damage (five point scale) [6]: 5 (5=80-100%)
- ALOMY POST percentage damage (five point scale) [7]: 5 (5=80-100%)
- AVEFA POST percentage damage (five point scale) [8]: 5 (5=80-100%)
- LOLPE POST percentage damage (five point scale) [9]: 5 (5=80-100%)

Compound: CC#Cc1cc(C)c(C2C(=O)CC3(CCN(C(=O)c4ccc(C#N)cn4)CC3)CC2=O)c(C)c1 [Compound A20]
- ALOMY PRE percentage damage (five point scale) [1]: 5 (5=80-100%)
- AVEFA PRE percentage damage (five point scale) [2]: 5 (5=80-100%)
- ECHCG PRE percentage damage (five point scale) [3]: 5 (5=80-100%)
- LOLPE PRE percentage damage (five point scale) [4]: 5 (5=80-100%)
- SETFA PRE percentage damage (five point scale) [5]: 5 (5=80-100%)
- SETFA POST percentage damage (five point scale) [6]: 5 (5=80-100%)
- ALOMY POST percentage damage (five point scale) [7]: 5 (5=80-100%)
- AVEFA POST percentage damage (five point scale) [8]: 5 (5=80-100%)
- LOLPE POST percentage damage (five point scale) [9]: 5 (5=80-100%)

Compound: CC#Cc1cc(C)c(C2=C(O)CC3(CCN(C=O)CC3)CC2=O)c(C)c1 [Compound A96]
- ALOMY PRE percentage damage (five point scale) [1]: 5 (5=80-100%)
- AVEFA PRE percentage damage (five point scale) [2]: 5 (5=80-100%)
- ECHCG PRE percentage damage (five point scale) [3]: 5 (5=80-100%)
- LOLPE PRE percentage damage (five point scale) [4]: 5 (5=80-100%)
- SETFA PRE percentage damage (five point scale) [5]: 5 (5=80-100%)
- SETFA POST percentage damage (five point scale) [6]: 5 (5=80-100%)
- ALOMY POST percentage damage (five point scale) [7]: 5 (5=80-100%)
- AVEFA POST percentage damage (five point scale) [8]: 5 (5=80-100%)
- LOLPE POST percentage damage (five point scale) [9]: 5 (5=80-100%)

Compound: CC#Cc1cc(C)c(C2C(=O)CC3(CCN(S(=O)(=O)c4cn(C)nc4C(F)(F)F)CC3)CC2=O)c(C)c1 [Compound A40]
- ALOMY PRE percentage damage (five point scale) [1]: 5 (5=80-100%)
- AVEFA PRE percentage damage (five point scale) [2]: 5 (5=80-100%)
- ECHCG PRE percentage damage (five point scale) [3]: 5 (5=80-100%)
- LOLPE PRE percentage damage (five point scale) [4]: 5 (5=80-100%)
- SETFA PRE percentage damage (five point scale) [5]: 5 (5=80-100%)
- SETFA POST percentage damage (five point scale) [6]: 5 (5=80-100%)
- ALOMY POST percentage damage (five point scale) [7]: 5 (5=80-100%)
- AVEFA POST percentage damage (five point scale) [8]: 5 (5=80-100%)
- LOLPE POST percentage damage (five point scale) [9]: 5 (5=80-100%)

Compound: CC#Cc1cc(C)c(C2=C(OC(=O)OC)CC3(CCN(C(=O)C4(C#N)CC4)CC3)CC2=O)c(C)c1 [Compound P33]
- ALOMY PRE percentage damage (five point scale) [1]: 5 (5=80-100%)
- AVEFA PRE percentage damage (five point scale) [2]: 5 (5=80-100%)
- ECHCG PRE percentage damage (five point scale) [3]: 5 (5=80-100%)
- LOLPE PRE percentage damage (five point scale) [4]: 5 (5=80-100%)
- SETFA PRE percentage damage (five point scale) [5]: 5 (5=80-100%)
- SETFA POST percentage damage (five point scale) [6]: 5 (5=80-100%)
- ALOMY POST percentage damage (five point scale) [7]: 5 (5=80-100%)
- AVEFA POST percentage damage (five point scale) [8]: 5 (5=80-100%)
- LOLPE POST percentage damage (five point scale) [9]: 5 (5=80-100%)

Compound: CC#Cc1cc(C)c(C2=C(OC(=O)OC)CC3(CCN(C(=O)C(C)O)CC3)CC2=O)c(C)c1 (stereo not drawn) [Compound P31]
- ALOMY PRE percentage damage (five point scale) [1]: 5 (5=80-100%)
- AVEFA PRE percentage damage (five point scale) [2]: 5 (5=80-100%)
- ECHCG PRE percentage damage (five point scale) [3]: 5 (5=80-100%)
- LOLPE PRE percentage damage (five point scale) [4]: 5 (5=80-100%)
- SETFA PRE percentage damage (five point scale) [5]: 5 (5=80-100%)
- SETFA POST percentage damage (five point scale) [6]: 5 (5=80-100%)
- ALOMY POST percentage damage (five point scale) [7]: 5 (5=80-100%)
- AVEFA POST percentage damage (five point scale) [8]: 5 (5=80-100%)
- LOLPE POST percentage damage (five point scale) [9]: 5 (5=80-100%)

Compound: CC#Cc1cc(C)c(C2=C(OC(=O)OC)CC3(CCN(C(=O)C(C)(C)OC)CC3)CC2=O)c(C)c1 [Compound P26]
- ALOMY PRE percentage damage (five point scale) [1]: 5 (5=80-100%)
- AVEFA PRE percentage damage (five point scale) [2]: 5 (5=80-100%)
- ECHCG PRE percentage damage (five point scale) [3]: 5 (5=80-100%)
- LOLPE PRE percentage damage (five point scale) [4]: 5 (5=80-100%)
- SETFA PRE percentage damage (five point scale) [5]: 5 (5=80-100%)
- SETFA POST percentage damage (five point scale) [6]: 5 (5=80-100%)
- ALOMY POST percentage damage (five point scale) [7]: 5 (5=80-100%)
- AVEFA POST percentage damage (five point scale) [8]: 5 (5=80-100%)
- LOLPE POST percentage damage (five point scale) [9]: 5 (5=80-100%)
